Literature values in patent US11077125B2, “Ophthalmic composition containing sulfasalazine and hyaluronic acid” (KUKJE PHARMA CO., LTD., priority 2016, dated 2021).
≈ marks a conversion by molar mass, not a printed value.

Details: in water

- solubility: 46.4 µg/mL (≈ 116 µM)
SMILES: O=C(O)c1cc(/N=N/c2ccc(S(=O)(=O)Nc3ccccn3)cc2)ccc1O [Sulfasalazine]
